Seven molecules from PMC9578020, “Design, synthesis, molecular modeling, and bioactivity evaluation of 1,10-phenanthroline and prodigiosin (Ps) derivatives and their Copper(I) complexes against mTOR and HDAC enzymes as highly potent and effective new anticancer therapeutic drugs” (Frontiers in Pharmacology, 2022) can be followed below.

The IC50 is the concentration that inhibits the measured activity by half.

Series [1] concerns HTB131. In words: CCK8 anticancer activity / cytotoxicity test, HTB131. It is filed as cell-based.
Series [2] deals with CRL-1620 (CRL). In words: CCK8 anticancer activity / cytotoxicity test, CRL. Format: cell-based.
The test system of series [3] is MDA-MB-231BR (231BR). In words: CCK8 anticancer activity / cytotoxicity test, 231BR. Format: cell-based. As to the method: (§1) The IC50 was calculated by SPSS statistics (IBM). […] All cytotoxicity tests were performed in six biological replicates.
(§2) The anticancer activity against 231BR is of highest interest. […] Figure 3 depicts the anticancer activities of these compounds.

Series [4] deals with MDA-MB-231 (231). In words: CCK8 anticancer activity / cytotoxicity test, 231. Format: cell-based, human.
The subject of series [5] is MCF10A. In words: CCK8 cytotoxicity test on normal cell line MCF10A. As to the method: (§3) MDA-MB-231 (231) and HTB131 were grown with RPIM-1640 medium (with 10% Fetal Bovine Serum and 2% Penicillin-Streptomycin Solution). MDA-MB-231BR (231BR), CRL-1620 (CRL), and MCF10A were grown with DMEM (with 10% Fetal Bovine Serum and 2% Penicillin-Streptomycin Solution). HTB22 was grown with EMEM (with 10% Fetal Bovine Serum and 2% Penicillin-Streptomycin Solution). Cell lines were taken out from liquid nitrogen and thawed in a 37°C water bath. After thawing, cell cultures were transferred to 75 cm^2 flasks and incubated at 37°C with 5% CO2 for 4–7 days. After reaching 80% of cell confluence, cells were ready for subculturing or testing.
(§4) Anticancer activity tests were performed using a Cell Counting Kit-8 (CCK8, SigmaAldrich) following manufacturer’s instruction ([Shen et al., 2016]). Briefly, 100 µl of diluted cell suspension (approximately 10000 cells) was transferred to 96-well plate, incubated at 37°C with 5% CO2 for 24 h. Then, the compounds were diluted into a serial of concentrations in DMSO. Next, 0.5 µl of diluted compounds were added to 100 µl of cell medium and gently mixed, resulting in the final concentration of DMSO at 0.5%. 100 µl of the compound contained medium were then used to replace the original medium and incubated at 37°C for 48 h. After incubation with compounds, 10 µl of CCK8 reagent was added to each well and mixed by gently tapping the plate. Then, the plate was incubated at 37°C for 2–4 h until the orange color was dark enough to measure. The plate was measured using a Multiskan microplate reader (Fisher Scientific) at 450 nm. The IC50 was calculated by SPSS statistics (IBM). […] All cytotoxicity tests were performed in six biological replicates. Each compound was performed two cycles of screening: primary screening using 10 times serial dilution to determine the approximate concentration and then secondary screening using a narrow concentration range to acquire the accurate IC50.
(§5) The newly synthesized molecules in which their binding affinities were predicted in silico were tested on five different breast cancer lines, MDA-MB-231 (231), MDA-MB-361 (361), HTB131, HTB22, and MDA-MB-231BR (231BR), and one brain cancer cell line, CRL-1620 (CRL). […] Among these cell lines, 231BR attracted most of our interest because it is a brain metastatic specific breast cancer cell line that has 100% rate of brain metastasis and cannot migrate to any other organs ([Yoneda et al., 2001]). The anticancer capacities of each compound were first screened by 10 times dilution to generate different molar concentrations ranging in 5 orders of magnitudes. This wide concentration range was applied for primary screening (Supplementary Table S3) to narrow down the targets. The approximate IC50 was estimated in the primary screening step and used to design the concentration range of the secondary cytotoxicity tests (Supplementary Table S4). […] Anticancer drug taxol (paclitaxel) was used as the reference to estimate the efficacy of each compound. […] The anticancer activity against 231BR is of highest interest. Meanwhile, the same treatments were performed against the normal breast cell line, MCF10A, to test their cytotoxicity. […] A negative logarithm of IC50 was applied to represent the corresponding anticancer activity.
For orientation: Tetrazolium dyes change colour on reduction, which living cells bring about.

Series [6] relates to MDA-MB-361 (361). In words: CCK8 anticancer activity / cytotoxicity test, 361. Format: cell-based. The method, then:
as §1, §2

Series [7] has as its system HTB22. In words: CCK8 anticancer activity / cytotoxicity test, HTB22. It is filed as cell-based. The conditions noted are these: HTB22, 48 h, 10 times serial dilution; read-out: Approximate IC50, primary screening. As to the method:
as §1, §2

The nature of series [8]: CCK8 cytotoxicity test on normal cell line MCF10A. The conditions noted are these: human, MCF10A normal breast cells. The method, then: as §3, §4, §5
Setting [9] is: 231BR, 48 h, 10 times serial dilution, read-out: Approximate IC50, primary screening.
[10] abbreviates: HTB131, 48 h, 10 times serial dilution, read-out: Approximate IC50, primary screening.
Setting [11] is: HTB131, 48 h, narrow concentration range, read-out: IC50, secondary cytotoxicity test.
The mark [12] stands for this setting: CRL, 48 h, narrow concentration range, read-out: IC50, secondary cytotoxicity test.
Setting [13] is: 231BR, 48 h, narrow concentration range, read-out: IC50, secondary cytotoxicity test.
Where [14] appears, read: CRL, 48 h, 10 times serial dilution, read-out: Approximate IC50, primary screening.

Each structure is given as a SMILES string. Read-outs that look alike come from different tables or passages of the source.

`COc1ccc(-c2ccc3ccc4ccc(-c5ccc(OC)cc5)nc4c3n2)cc1.Cc1cc2ccc1OCCOCCOCCOCCOCCOc1ccc(cc1C)-c1ccc3ccc4ccc-2nc4c3n1.F[P-](F)(F)(F)(F)F.[Cu+]` [Compound C1]: the concentration for half-maximal inhibition (IC50) was 228 nM in series [1]; 315 nM in series [2]; 597 nM in series [3]; < 10000 nM in series [3] (setting [9]); 403 nM in series [4]; 1000 nM in series [5]. Besides, the IC50 in series [6] is 6.5 µM.
In the case of `CCC1=NC(=Cc2[nH]c(-c3cn[nH]c3)cc2OC)C=C1.CCC1=NC(=Cc2[nH]c(-c3cn[nH]c3)cc2OC)C=C1.F[P-](F)(F)(F)(F)F.[Cu+]` [Compound C8], the IC50 in series [3] (setting [9]) worked out at 48500 nM.
For the molecule `CCC1=NC(=Cc2[nH]c(-c3ccn[nH]3)cc2OC)C=C1.CCC1=NC(=Cc2[nH]c(-c3ccn[nH]3)cc2OC)C=C1.F[P-](F)(F)(F)(F)F.[Cu+]` [Compound C9], the concentration for half-maximal inhibition (IC50) in series [1] (setting [10]) amounted to 10200 nM.
`CCC1=NC(=Cc2[nH]c(-c3ncc[nH]3)cc2OC)C=C1.CCC1=NC(=Cc2[nH]c(-c3ncc[nH]3)cc2OC)C=C1.F[P-](F)(F)(F)(F)F.[Cu+]` [Compound C10]: the IC50 in series [1] (setting [11]) was found to be 2170 nM; in series [2] (setting [12]) it was 1600 nM; in series [3] (setting [13]), 2200 nM; in series [4] (231, 48 h, narrow concentration range, read-out: IC50, secondary cytotoxicity test), 2860 nM; in series [5] (read-out: IC50, secondary cytotoxicity test, MCF10A normal cell line, 48 h, Table S4), 1400 nM.
Take `CCC1=NC(=Cc2[nH]c(-c3ccc4[nH]ccc4c3)cc2OC)C=C1.CCC1=NC(=Cc2[nH]c(-c3ccc4[nH]ccc4c3)cc2OC)C=C1.F[P-](F)(F)(F)(F)F.[Cu+]` [Compound C14]: the half-inhibitory concentration (IC50) in series [2] (setting [14]) is 38300 nM; in series [5] (read-out: Approximate IC50, primary screening, MCF10A normal cell line, 48 h, 10 times serial dilution) it was > 385000 nM. The “anticancer activity increase of copper(I) complex compared with its ligand” value in series [3] (231BR, C14 compared with L14) is 5.9 times.
On to `CCC1=NC(=Cc2[nH]c(-c3cccc4cc[nH]c34)cc2OC)C=C1.CCC1=NC(=Cc2[nH]c(-c3cccc4cc[nH]c34)cc2OC)C=C1.F[P-](F)(F)(F)(F)F.[Cu+]` [Compound C15], for which the IC50 in series [3] (setting [9]) is 31900 nM.
Turning to `CCC1=N/C(=C\c2[nH]c(-c3cccn3C(=O)OC(C)(C)C)cc2OC)C=C1` [Compound L7], the IC50 in series [7] is 0.75 to 7.5 µM; in series [1] (setting [10]) it was 75 to 750 nM; in series [1] (setting [11]), 139 nM; in series [1] (HTB131, 48 h, read-out: IC50, secondary cytotoxicity test), 0.0512 µg/mL; in series [2] (setting [14]) it was 750 to 7500 nM; in series [2] (setting [12]), 409 nM. Moreover, the IC50 in series [2] (CRL, 48 h, read-out: IC50, secondary cytotoxicity test) was 0.15 µg/mL; in series [3] (setting [9]) it was 75 nM; in series [3] (setting [13]) it was 46.3 nM; in series [3] (231BR, 48 h, read-out: IC50, secondary cytotoxicity test) it was 0.017 µg/mL; in series [4] (Homo sapiens, MDA-MB-231, 48 h, read-out: IC50, secondary cytotoxicity test), 0.0278 µg/mL; in series [4] (Homo sapiens, MDA-MB-231, 231, 48 h, 10 times serial dilution, read-out: Approximate IC50, primary screening), 75 to 750 nM. For the same molecule, the concentration for half-maximal inhibition (IC50) in series [4] (Homo sapiens, MDA-MB-231, 231, 48 h, narrow concentration range, read-out: IC50, secondary cytotoxicity test) is 75.8 nM; in series [5] (Homo sapiens, MCF-10A, 48 h, read-out: Approximate IC50, primary screening), 75 to 750 nM; in series [6] (Homo sapiens, MDA-MB-361, 48 h, read-out: IC50, secondary cytotoxicity test), 2.12 µg/mL; in series [6] (Homo sapiens, MDA-MB-361, 361, 48 h, 10 times serial dilution, read-out: Approximate IC50, primary screening), 0.75 to 7.5 µM; in series [6] (Homo sapiens, MDA-MB-361, 361, 48 h, Table S4, read-out: IC50, secondary cytotoxicity test), 5.79 µM. Further, the half-inhibitory concentration (IC50) at 48 h in series [8] was 3.93 µM.
